This note sets out measurements from US8093299B2, “Methods of treating bowel disorders” (Amgen Inc., priority 2007, dated 2012).

The structures appear in SMILES notation. Values joined by “and” are separate entries in the source; they are usually repeats but may differ in a detail not shown here. Identical values can stand only once. “Also recorded” adds a separate entry of the source.

Series [1] relates to 5% DSS induced colitis in SJL/J mice. Put plainly: DSS-induced colitis in mice, histopathologic inflammation score of large intestine. It counts as in vivo, mouse. The source says:
Animals. Female SJL/J mice aged 8-10 weeks were used for this study, purchased from Jackson Laboratories (Bar Harbour, Me.). Female Spraque-Dawley rats (approximately 150-300 grams) were purchased from Charles River Laboratories Inc. (Wilmington, Mass.). Mdr1a−/− mice (FVB.129P2-Abcb1a^tm1BorN7), weight 20-21 g, 8 weeks at initiation of experiments, were housed and maintained (5 per cage) in the animal facility at Amgen Washington. All animals were cared for according to the standard protocols of the Amgen Institutional Animal Care and Use Committee.
Chemical reagents. Dextran sodium sulfate (DSS) with molecular mass 36-50 kDa was purchased from ICN Chemicals, Aurora, Ohio. The DSS solution was prepared as a 5% w/v solution in sterile water (Baxter Healthcare Corporation) and sterile filtered through a 0.45 μm filter before being added to drinking water. Water for the negative control groups was similarly filtered. FK506, (also known as Tacrolimus, active ingredient in Prograf®), chemical name [3S-[3R*[E(1S*,3S*,4S*)],4S*,5R*,8S*,9E,12R*,14R*,15S*,16R*,18S*,19S*,26aR*]]-5,6,8,11,12,13,14,15,16,17,18,19,24,25,26,26a-hexadecahydro-5,19-dihydroxy-3-[2-(4-hydroxy-3-methoxycyclohexyl)-1-methylethenyl]-14,16-dimethoxy-4,10,12,18-tetramethyl-8-(2-propenyl)-15,19-epoxy-3H-pyrodi[2,1-c][1,4]oxaazacyclotricosine-1,7,20,21(4H, 23H)-tetrone monohydrate, was used as a positive control for the inflammation treatment. Tacrolimus is a macrolide immunosuppressant produced by Streptomyces tsukubaensis. The solution of FK506 (Prograf®, Astellas) was prepared as follows: 0.1 mg/ml solution in phosphate buffered saline (PBS) was prepared by diluting 5 mg/ml stock solution. The animals were dosed with FK506 at 1 mg/kg in 200 μl of PBS.
Calcimimetic solutions (Compound A, 3-(2-chlorophenyl)-N-((1R)-1-(3-(methyloxy)phenyl)ethyl)-1-propanamine, Compound B, (1R)-N-((6-(methyloxy)-4′-(trifluoromethyl)-3-biphenylyl)methyl)-1-phenylethanamine, Compound C, N-(2-chloro-5-((((1R)-1-phenylethyl)amino)methyl)phenyl)-5-methyl-3-isoxazolecarboxamide, and Compound D, N-(2-chloro-5-((((1R)-1-phenylethyl)amino)methyl)phenyl)-2-pyridinecarboxamide) were formulated and dosed in free base equivalents at volumes determined by the pharmacologist. Formulation vehicle was 20% (w/v) Captisol (β-Cyclodextrin Sulfobutyl Ether Sodium Salt, Research Grade from CyDex, Inc.) in water with a final pH of 2.0-2.2 at room temperature, adjusted with HCl and NaOH as required. Final concentrations of DMSO never exceeded 0.1% (v/v).
DSS colitis in mice. All experiments were performed on groups of 8 to 10 SJL-J mice, housed in the same cage. For disease induction, mice were given a 5% DSS ad libitum as drinking water for 9 days.
Postmortem evaluation. Mice and rats were euthanized by CO2 asphyxiation. The large intestine were removed from the carcass, evaluated for gross lesions and three individual non-adjacent segments of proximal, middle and distal large intestine 2 centimeters long were immersed in the Zinc Formalin fix for 24 hours. At the end of 24 hours the sections were washed with tap water and put into 70% ethanol. Each section was then cut into three 3 mm pieces (9 pieces per animal), processed into paraffin blocks, and sections were cut in 5 μm sections and stained with hematoxylin and eosin.
Histopathologic changes of the proximal, middle, and distal small and large intestine was scored as a global assessment of inflammation based on inflammatory infiltrate, edema, mucosal erosions or ulcerations as described in Table 6.
For disease induction, treated mice were given 5% DSS in water ad libitum as drinking water for 9 days as described in Example 1 and were concurrently treated orally during that period with one of the treatments listed in Table 8.
FIG. 1 and Table 8 summarize the effect of the calcimimetic compound B on colonic inflammation in 5% DSS induced colitis. Animals were euthanized with carbon dioxide on day nine post treatment. […]

Series [2] relates to colitis in mdr1a-/- mice induced by H. bilis. Put plainly: Colitis in mdr1a-/- mice infected with Helicobacter bilis (clinical score, disease onset, histology). It counts as in vivo, mouse. To be noted: for Total LI score (Max = 12), individual animals / GI Inflammation LI DISTAL, individual animals / GI Inflammation LI MIDDLE, individual animals / GI Inflammation LI PROXIMAL, individual animals: listed as R-B; for GI Inflammation LI DISTAL, individual animals / GI Inflammation LI MIDDLE, individual animals / GI Inflammation LI PROXIMAL, individual animals: score 0-4; for disease onset compared to vehicle control group: Log-Rank test, p-value=0.04.

A short description of series [3]: Serum calcium and phosphorus in mdr1a-/- colitis study. It counts as in vivo, mouse. The conditions noted are these: day 38. As for the experimental part:
(§1) All mice were necropsied on day 38 post initial inoculation. Mice were euthanized by CO2 asphyxiation. Blood was obtained by intracardiac puncture and collected in serum separator tubes. Serum was harvested and stored at −80° C. Colons were dissected below the cecum and just above the anus, and the contents of the lumen were removed. Sections of the proximal, middle, and distal colon regions were fixed in 10% neutral buffered formalin for histopathological analysis.
(§2) Serum clinical chemistry analysis was performed on the Olympus AU400 using standard tests and protocols. Calcium and phosphorus measurements were performed on undiluted serum for all samples. Serum cytokines and chemokines were assayed by Lincoplex mouse cytokine/chemokine muliplex immunoassasy (Millipore; Billerica, Mass.) per manufacturer instructions.
(§3) Results for serum analytes were expressed as the mean±standard error of the mean (SEM). A one-way ANOVA with Tukey's post test was performed using GraphPad Prism. A p-value of 0.05 was used in the calculation to determine whether there were significant differences between any two groups. Results for disease onset were expressed as a standard survival curve. A Log-Rank (Mantel-Cox) Test was performed using GraphPad Prism to determine significance. A p-value of 0.05 was used in the calculation to determine whether there were significant differences between any two groups. Results for clinical score and histology score were expressed as the mean±SEM. A Cochran-Mantel-Haenszel mean score test was performed using SAS software. A p-value of 0.05 was used in the calculation to determine whether there were significant differences between any two groups.

Another series relates to IP-10. Put plainly: Serum IP-10 in mdr1a-/- colitis study. It counts as in vivo, mouse. As for the experimental part:
as §1, §2, §3

Series [4] is described as follows: Absorption from the gut into the bloodstream.
[5] abbreviates: 10 mg/kg oral, 5% DSS 9 days, vs Captisol vehicle, p<0.01.
[6] abbreviates: R-Compound B 10 and 3 mg/kg groups.
Setting [7] is: 30 mg/kg oral, 5% DSS 9 days, vs Captisol vehicle.

For `COc1ccc(CN[C@H](C)c2ccccc2)cc1-c1ccc(C(F)(F)F)cc1` [Compound B, (1R)-N-((6-(methyloxy)-4′-(trifluoromethyl)-3-biphenylyl)methyl)-1-phenylethanamine], the “animals lacking inflammatory changes (colon normal)” value in series [1] (10 mg/kg oral, 5% DSS 9 days) is given as “Four out of ten”. In series [1] (setting [5]), the “mean large intestine inflammatory score, combined segments” value was “statistically significant decreased” and the “mean large intestine inflammatory score, middle segment” value was “statistically significant decreased”. Moreover, in series [1] (10 mg/kg oral, 5% DSS 9 days, vs Captisol vehicle, p<0.05), the “mean large intestine inflammatory score, distal segment” value was “statistically significant decreased”. In addition, the “Animals with colonic inflammation/total animals” value in series [1] (5% DSS 9 days, SJL/J mice, oral, Compound B 10 mg/kg, FK 506 1 mg/kg) was 6/10. Also, the “mean inflammatory score in combined colonic segments compared to FK 506 treatment” value in series [1] (Compound B 10 mg/kg vs FK 506 1 mg/kg, oral, 5% DSS) is given as “statistically significant (p<0.05) decrease”. Moreover, in series [2] (3 mg/kg PO daily, day 38), the “Average LI score” value was determined as 1.6; the “GI Inflammation LI DISTAL, Segment Mean” value is recorded as 0.60; the “GI Inflammation LI MIDDLE, Segment Mean” value amounted to 0.60; the “GI Inflammation LI PROXIMAL, Segment Mean” value is on record as 0.40. In series [2] (3 mg/kg PO daily, day 38), the “Total LI score (Max = 12), individual animals” value was 0 (8×) and 8 (2×); the “GI Inflammation LI DISTAL, individual animals” value is 0 (8×) and 3 (2×); the “GI Inflammation LI MIDDLE, individual animals” value is 0 (8×) and 3 (2×); the “GI Inflammation LI PROXIMAL, individual animals” value was 0 (8×) and 2 (2×). Also, the “day on which an animal began showing clinical signs of colitis (disease onset)” value in series [2] (3 mg/kg PO daily, first and second animal, listed as R-Compound B) is 17 days and 31 days. Further, in series [2] (10 mg/kg PO daily), the “day on which animals began showing clinical symptoms (disease onset)” value stood at 32 days and the “disease onset compared to vehicle control group” value is given as “significantly different”. Further, the “disease onset compared to vehicle control group” value in series [2] (10 mg/kg PO daily, listed as R-Compound B) was “statistically significant difference”. Further, in series [2] (10 mg/kg PO daily, day 38), the “Average LI score” value is 0.9; the “GI Inflammation LI DISTAL, Segment Mean” value was determined as 0.30; the “GI Inflammation LI MIDDLE, Segment Mean” value amounted to 0.20; the “GI Inflammation LI PROXIMAL, Segment Mean” value came out at 0.40. In series [2] (10 mg/kg PO daily, day 38), the “Total LI score (Max = 12), individual animals” value is 2 and 0 (8×) and 7; the “GI Inflammation LI DISTAL, individual animals” value is 0 (9×) and 3; the “GI Inflammation LI MIDDLE, individual animals” value was 0 (9×) and 2; the “GI Inflammation LI PROXIMAL, individual animals” value was 2 (2×) and 0 (8×). The “clinical scores compared to vehicle group” value in series [2] (10 mg/kg PO daily, final day (day 38), p<0.05) is reported as “significantly lower clinical scores”. Besides, in series [2] (setting [6]), the “anal inflammation score of animals showing clinical symptoms” value is “none had an anal inflammation score above moderate” and the development of diarrhea entry is “no animal developed diarrhea”. For the same molecule, the “number of animals with clinical symptoms of disease on the final day of the study” value in series [2] (day 38, per treatment group (S-Compound B 10 mg/kg, n=5; R-Compound B 10 mg/kg and 3 mg/kg, n=10 each)) is “one”. The “percentage of animals with colon pathology” value in series [2] (each R-Compound B group (10 and 3 mg/kg)) came to 20%. Moreover, the “overall effect on development, onset, incidence and severity of colitis” value in series [2] (mdr1a-/- mice, 10 or 3 mg/kg PO daily, listed as R-Compound B) was “attenuates the development of colitis; also recorded: delayed the onset of colitis and reduced the severity of disease; also recorded: reduced the incidence and severity of disease; also recorded: inhibited the development and severity of colitis”. Also, the “animals with colitis / colon pathology by histology” value in series [2] (per group: R-Compound B 10 and 3 mg/kg each, S-Compound B 10 mg/kg) is 2 out of 10. Besides, the “serum phosphorus compared to the S-Compound B treated group only” value in series [3] (3 mg/kg PO daily) is reported as “significant elevation”. Moreover, in series [3] (10 mg/kg PO daily), the “serum calcium compared to CTLA4 and vehicle control groups” value is recorded as “significant calcium reductions”; the “serum phosphorus levels compared to all control groups” value is “significantly elevated”. Further, the “serum calcium levels compared to uninfected controls” value in series [3] (both R-Compound B groups (10 and 3 mg/kg PO daily)) is given as “significantly reduced”. Besides, in the series on IP-10 (10 mg/kg PO daily, p=0.06), the “difference in production of serum IP-10 vs vehicle control group” value is reported as “approached significance”. For the same molecule, the “elevation of serum IP-10” value in the series on IP-10 (treatment groups vs vehicle treated animals) is “less elevation”.

Consider `Cc1cc(C(=O)Nc2cc(CN[C@H](C)c3ccccc3)ccc2Cl)no1` [Compound C, N-(2-chloro-5-((((1R)-1-phenylethyl)amino)methyl)phenyl)-5-methyl-3-isoxazolecarboxamide], for which the “inflammation scores in all parts of colon compared to vehicle (FIG. 2)” value in series [1] (30 mg/kg oral, 5% DSS) is “reduce inflammation scores”. Also, in series [1] (setting [7]), the “decrease in mean large intestine inflammatory score, combined” value is given as 30%; the “decrease in mean large intestine inflammatory score, distal” value is reported as 49%; the “decrease in mean large intestine inflammatory score, middle” value was found to be 20%; the “decrease in mean large intestine inflammatory score, proximal” value is listed as 15%. Besides, the “absorption from the gut into the bloodstream” value in series [4] is “not to be absorbed readily”.

Regarding `C[C@@H](NCc1ccc(Cl)c(NC(=O)c2ccccn2)c1)c1ccccc1` [Compound D, N-(2-chloro-5-((((1R)-1-phenylethyl)amino)methyl)phenyl)-2-pyridinecarboxamide], the “inflammation scores in all parts of colon compared to vehicle (FIG. 2)” value in series [1] (30 mg/kg oral, 5% DSS) is on record as “reduce inflammation scores”. For the same molecule, in series [1] (30 mg/kg oral, 5% DSS 9 days), the “animals lacking inflammatory changes (colon normal)” value was “Two out of eight”. Further, in series [1] (setting [7]), the “decrease in mean large intestine inflammatory score, combined” value is 48%; the “decrease in mean large intestine inflammatory score, distal” value was found to be 68%; the “decrease in mean large intestine inflammatory score, middle” value came out at 29%; the “decrease in mean large intestine inflammatory score, proximal” value is 44%. Further, the “absorption from the gut into the bloodstream” value in series [4] was “not to be absorbed readily”.
